# Assay results taken from ChEMBL document CHEMBL5143515, “Identification of new halogen-containing 2,4-diphenyl indenopyridin-5-one derivative as a boosting agent for the anticancer responses of clinically available topoisomerase inhibitors” (Eur J Med Chem, 2022).
# Where a name gives a salt, the structure may show the parent alone.
# System: HCT-15
# Experiment: Antiproliferative activity against human HCT-15 cells after 72 hrs by EZ-Cytox colorimetric assay
# Type: functional, cell-based
# Conditions: HCT-15, 72 h
row,SMILES,IC50 [µM]
1,O=C1c2ccccc2-c2nc(-c3cccc(Br)c3)cc(-c3ccccc3)c21,17.9
2,O=C1c2ccccc2-c2nc(-c3ccccc3Cl)cc(-c3ccccc3)c21,> 50
3,O=C1c2ccccc2-c2nc(-c3cccc(F)c3)cc(-c3ccccc3)c21,> 50
4,COc1cccc2c1C(=O)c1c(O)c3c(c(O)c1C2=O)C[C@@](O)(C(=O)CO)C[C@@H]3O[C@H]1C[C@H](N)[C@H](O)[C@H](C)O1 [DOXORUBICIN HYDROCHLORIDE],136
5,O=C1c2ccccc2-c2nc(-c3ccccc3F)cc(-c3ccccc3)c21,49.2
6,O=C1c2ccccc2-c2nc(-c3cccc(Cl)c3)cc(-c3ccccc3)c21,23.4
7,O=C1c2ccccc2-c2nc(-c3ccc(F)cc3)cc(-c3ccccc3)c21,33.3
8,O=C1c2ccccc2-c2nc(-c3ccc(Cl)cc3)cc(-c3ccccc3)c21,> 50

# System: HeLa
# Experiment: Antiproliferative activity against human HeLa cells after 72 hrs by EZ-Cytox colorimetric assay
# Type: functional, cell-based
# Conditions: not given
row,SMILES,IC50 [µM]
1,O=C1c2ccccc2-c2nc(-c3cccc(Br)c3)cc(-c3ccccc3)c21,20.2
2,O=C1c2ccccc2-c2nc(-c3ccccc3Cl)cc(-c3ccccc3)c21,> 50
3,O=C1c2ccccc2-c2nc(-c3cccc(F)c3)cc(-c3ccccc3)c21,> 50
4,COc1cccc2c1C(=O)c1c(O)c3c(c(O)c1C2=O)C[C@@](O)(C(=O)CO)C[C@@H]3O[C@H]1C[C@H](N)[C@H](O)[C@H](C)O1 [DOXORUBICIN HYDROCHLORIDE],1.36
5,O=C1c2ccccc2-c2nc(-c3ccccc3F)cc(-c3ccccc3)c21,> 50
6,O=C1c2ccccc2-c2nc(-c3cccc(Cl)c3)cc(-c3ccccc3)c21,> 50
7,O=C1c2ccccc2-c2nc(-c3ccc(F)cc3)cc(-c3ccccc3)c21,> 50
8,O=C1c2ccccc2-c2nc(-c3ccc(Cl)cc3)cc(-c3ccccc3)c21,> 50

# System: T47D
# Experiment: Antiproliferative activity against human T47D cells after 72 hrs by EZ-Cytox colorimetric assay
# Type: functional, cell-based
# Conditions: not given
row,SMILES,IC50 [µM]
1,O=C1c2ccccc2-c2nc(-c3cccc(Br)c3)cc(-c3ccccc3)c21,28
2,O=C1c2ccccc2-c2nc(-c3ccccc3Cl)cc(-c3ccccc3)c21,> 50
3,O=C1c2ccccc2-c2nc(-c3cccc(F)c3)cc(-c3ccccc3)c21,> 50
4,COc1cccc2c1C(=O)c1c(O)c3c(c(O)c1C2=O)C[C@@](O)(C(=O)CO)C[C@@H]3O[C@H]1C[C@H](N)[C@H](O)[C@H](C)O1 [DOXORUBICIN HYDROCHLORIDE],1.48
5,O=C1c2ccccc2-c2nc(-c3ccccc3F)cc(-c3ccccc3)c21,> 50
6,O=C1c2ccccc2-c2nc(-c3cccc(Cl)c3)cc(-c3ccccc3)c21,> 50
7,O=C1c2ccccc2-c2nc(-c3ccc(F)cc3)cc(-c3ccccc3)c21,> 50
8,O=C1c2ccccc2-c2nc(-c3ccc(Cl)cc3)cc(-c3ccccc3)c21,> 50

# System: DU-145
# Experiment: Antiproliferative activity against human DU-145 cells after 72 hrs by EZ-Cytox colorimetric assay
# Type: functional, cell-based
# Conditions: DU-145, 72 h
row,SMILES,IC50 [µM]
1,O=C1c2ccccc2-c2nc(-c3cccc(Br)c3)cc(-c3ccccc3)c21,9.48
2,O=C1c2ccccc2-c2nc(-c3ccccc3Cl)cc(-c3ccccc3)c21,> 50
3,O=C1c2ccccc2-c2nc(-c3cccc(F)c3)cc(-c3ccccc3)c21,> 50
4,COc1cccc2c1C(=O)c1c(O)c3c(c(O)c1C2=O)C[C@@](O)(C(=O)CO)C[C@@H]3O[C@H]1C[C@H](N)[C@H](O)[C@H](C)O1 [DOXORUBICIN HYDROCHLORIDE],2.99
5,O=C1c2ccccc2-c2nc(-c3ccccc3F)cc(-c3ccccc3)c21,> 50
6,O=C1c2ccccc2-c2nc(-c3cccc(Cl)c3)cc(-c3ccccc3)c21,14.4
7,O=C1c2ccccc2-c2nc(-c3ccc(F)cc3)cc(-c3ccccc3)c21,20.7
8,O=C1c2ccccc2-c2nc(-c3ccc(Cl)cc3)cc(-c3ccccc3)c21,5.76

# Molecular target: DNA topoisomerase 2-alpha (Homo sapiens) (UniProt P11388)
# Experiment: Inhibition of recombinant human topoisomerase 2alpha assessed as relaxation of supercoiled plasmid pBR322 DNA at 100 uM by agarose gel electrophoresis (reference value: 82.2%)
# Conditions: not given
# Sequence of DNA topoisomerase 2-alpha (Homo sapiens) (P11388 whole entry): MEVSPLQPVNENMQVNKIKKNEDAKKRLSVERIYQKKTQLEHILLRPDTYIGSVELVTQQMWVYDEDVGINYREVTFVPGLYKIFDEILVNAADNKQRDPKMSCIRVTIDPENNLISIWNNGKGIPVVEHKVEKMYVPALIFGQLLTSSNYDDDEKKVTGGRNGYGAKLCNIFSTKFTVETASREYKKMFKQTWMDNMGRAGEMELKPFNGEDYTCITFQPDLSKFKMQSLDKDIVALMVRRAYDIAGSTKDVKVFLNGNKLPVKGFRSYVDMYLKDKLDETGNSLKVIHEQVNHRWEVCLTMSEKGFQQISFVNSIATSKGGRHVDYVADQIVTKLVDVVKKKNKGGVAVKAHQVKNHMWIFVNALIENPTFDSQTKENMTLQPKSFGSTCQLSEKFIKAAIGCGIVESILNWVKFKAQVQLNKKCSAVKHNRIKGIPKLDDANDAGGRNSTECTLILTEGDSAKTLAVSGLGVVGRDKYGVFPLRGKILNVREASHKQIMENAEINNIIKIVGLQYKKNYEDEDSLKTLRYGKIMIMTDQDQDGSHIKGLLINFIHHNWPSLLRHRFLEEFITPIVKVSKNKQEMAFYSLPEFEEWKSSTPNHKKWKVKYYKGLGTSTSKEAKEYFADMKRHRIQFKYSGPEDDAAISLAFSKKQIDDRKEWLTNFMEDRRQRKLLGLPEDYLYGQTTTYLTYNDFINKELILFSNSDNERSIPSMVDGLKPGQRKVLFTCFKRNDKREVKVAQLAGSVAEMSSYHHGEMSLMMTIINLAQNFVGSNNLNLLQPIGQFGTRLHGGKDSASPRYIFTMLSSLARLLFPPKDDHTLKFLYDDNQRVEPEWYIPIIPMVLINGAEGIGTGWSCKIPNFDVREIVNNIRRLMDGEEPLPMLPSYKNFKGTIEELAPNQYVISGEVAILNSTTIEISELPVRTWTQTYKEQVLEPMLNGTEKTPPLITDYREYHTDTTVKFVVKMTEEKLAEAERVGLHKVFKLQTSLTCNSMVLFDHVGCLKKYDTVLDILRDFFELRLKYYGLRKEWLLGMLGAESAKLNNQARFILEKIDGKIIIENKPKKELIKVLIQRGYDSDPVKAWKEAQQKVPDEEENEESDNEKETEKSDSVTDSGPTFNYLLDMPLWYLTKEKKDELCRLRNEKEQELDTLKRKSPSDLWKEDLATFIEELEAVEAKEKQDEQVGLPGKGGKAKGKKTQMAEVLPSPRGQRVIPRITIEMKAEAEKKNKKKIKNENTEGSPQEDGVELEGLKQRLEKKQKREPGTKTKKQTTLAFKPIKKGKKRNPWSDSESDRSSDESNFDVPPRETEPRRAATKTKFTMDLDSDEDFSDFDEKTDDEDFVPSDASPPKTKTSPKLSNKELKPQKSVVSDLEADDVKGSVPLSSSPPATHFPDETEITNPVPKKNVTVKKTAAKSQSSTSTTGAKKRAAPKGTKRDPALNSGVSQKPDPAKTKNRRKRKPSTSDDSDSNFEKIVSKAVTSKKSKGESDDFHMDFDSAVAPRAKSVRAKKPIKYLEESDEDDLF
row,SMILES,inhibition [%]
1,O=C1c2ccccc2-c2nc(-c3cccc(Br)c3)cc(-c3ccccc3)c21,83.8
2,O=C1c2ccccc2-c2nc(-c3ccccc3Cl)cc(-c3ccccc3)c21,93.3
3,O=C1c2ccccc2-c2nc(-c3cccc(F)c3)cc(-c3ccccc3)c21,0
4,O=C1c2ccccc2-c2nc(-c3ccccc3F)cc(-c3ccccc3)c21,0
5,O=C1c2ccccc2-c2nc(-c3cccc(Cl)c3)cc(-c3ccccc3)c21,98.1
6,O=C1c2ccccc2-c2nc(-c3ccc(F)cc3)cc(-c3ccccc3)c21,36.9
7,O=C1c2ccccc2-c2nc(-c3ccc(Cl)cc3)cc(-c3ccccc3)c21,91.3

# Molecular target: T1, DNA topoisomerase 1 (Homo sapiens) (UniProt P11387)
# T1 sequence (whole entry): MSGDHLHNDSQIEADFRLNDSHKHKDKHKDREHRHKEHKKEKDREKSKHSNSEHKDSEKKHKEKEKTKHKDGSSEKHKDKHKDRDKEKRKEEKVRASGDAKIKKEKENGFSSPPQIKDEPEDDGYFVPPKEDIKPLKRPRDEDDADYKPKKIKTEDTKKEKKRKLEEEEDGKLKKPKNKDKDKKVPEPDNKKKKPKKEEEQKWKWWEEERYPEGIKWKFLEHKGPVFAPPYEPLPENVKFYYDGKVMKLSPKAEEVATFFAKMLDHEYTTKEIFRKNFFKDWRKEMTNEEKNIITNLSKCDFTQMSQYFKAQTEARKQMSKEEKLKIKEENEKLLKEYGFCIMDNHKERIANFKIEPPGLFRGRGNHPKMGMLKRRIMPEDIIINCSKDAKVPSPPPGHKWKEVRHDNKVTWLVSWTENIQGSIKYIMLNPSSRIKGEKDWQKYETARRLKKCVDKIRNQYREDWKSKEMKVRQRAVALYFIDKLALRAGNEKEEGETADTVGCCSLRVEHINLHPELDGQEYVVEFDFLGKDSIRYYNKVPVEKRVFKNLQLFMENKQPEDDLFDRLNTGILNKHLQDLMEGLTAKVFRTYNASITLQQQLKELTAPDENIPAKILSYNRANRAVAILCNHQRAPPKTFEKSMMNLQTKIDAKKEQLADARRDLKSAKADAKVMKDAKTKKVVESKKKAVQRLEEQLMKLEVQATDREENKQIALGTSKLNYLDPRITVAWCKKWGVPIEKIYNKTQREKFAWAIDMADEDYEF
# Experiment: Inhibition of recombinant human topoisomerase 1 assessed as relaxation of supercoiled plasmid pBR322 DNA at 100 uM by agarose gel electrophoresis (reference value: 83.2%)
# Conditions: not given
row,SMILES,inhibition [%]
1,O=C1c2ccccc2-c2nc(-c3cccc(Br)c3)cc(-c3ccccc3)c21,82.9
2,O=C1c2ccccc2-c2nc(-c3ccccc3Cl)cc(-c3ccccc3)c21,66.7
3,O=C1c2ccccc2-c2nc(-c3cccc(F)c3)cc(-c3ccccc3)c21,34.2
4,O=C1c2ccccc2-c2nc(-c3ccccc3F)cc(-c3ccccc3)c21,26.7
5,O=C1c2ccccc2-c2nc(-c3cccc(Cl)c3)cc(-c3ccccc3)c21,85.7
6,O=C1c2ccccc2-c2nc(-c3ccc(F)cc3)cc(-c3ccccc3)c21,34.7
7,O=C1c2ccccc2-c2nc(-c3ccc(Cl)cc3)cc(-c3ccccc3)c21,80.4

# Molecular target: DNA topoisomerase 2-alpha (Homo sapiens) (UniProt P11388)
# Experiment: Inhibition of recombinant human topoisomerase 2alpha assessed as relaxation of supercoiled plasmid pBR322 DNA at 20 uM by agarose gel electrophoresis (reference value: 48.4%)
# Conditions: not given
row,SMILES,inhibition [%]
1,O=C1c2ccccc2-c2nc(-c3cccc(Br)c3)cc(-c3ccccc3)c21,5.3
2,O=C1c2ccccc2-c2nc(-c3ccccc3Cl)cc(-c3ccccc3)c21,71.8
3,O=C1c2ccccc2-c2nc(-c3cccc(Cl)c3)cc(-c3ccccc3)c21,89.2
4,O=C1c2ccccc2-c2nc(-c3ccc(F)cc3)cc(-c3ccccc3)c21,2.5
5,O=C1c2ccccc2-c2nc(-c3ccc(Cl)cc3)cc(-c3ccccc3)c21,60

# Molecular target: T1, DNA topoisomerase 1 (Homo sapiens)
# Experiment: Inhibition of recombinant human topoisomerase 1 assessed as relaxation of supercoiled plasmid pBR322 DNA at 20 uM by agarose gel electrophoresis (reference value: 40.4%)
# Conditions: not given
row,SMILES,inhibition [%]
1,O=C1c2ccccc2-c2nc(-c3cccc(Br)c3)cc(-c3ccccc3)c21,0
2,O=C1c2ccccc2-c2nc(-c3ccccc3Cl)cc(-c3ccccc3)c21,0
3,O=C1c2ccccc2-c2nc(-c3cccc(F)c3)cc(-c3ccccc3)c21,0
4,O=C1c2ccccc2-c2nc(-c3cccc(Cl)c3)cc(-c3ccccc3)c21,0
5,O=C1c2ccccc2-c2nc(-c3ccc(F)cc3)cc(-c3ccccc3)c21,0
6,O=C1c2ccccc2-c2nc(-c3ccc(Cl)cc3)cc(-c3ccccc3)c21,0
